Reference: US20110166112A1, “METHOD FOR STIMULATING PLATELET PRODUCTION” (Eisai, Inc., priority 2009, published 2011)

System: subjects with chronic ITP
Experiment: Treatment-emergent bleeding events (WHO Bleeding Scale; Kaplan-Meier time to first bleeding event)
Type: in vivo, human
Source text: As used herein, the term “bleeding” refers to any bleeding, as measured by the World Health Organization's Bleeding Scale (e.g., Grade 0=no bleeding; Grade 1=petechial bleeding; Grade 2=clinical significant mild blood loss; […]=gross (severe) blood loss, requiring transfusion; Grade 5=debilitating blood loss, retinal or cerebral associated with fatality). In some embodiments, the bleeding may be due to a low platelet count.
Bleeding Events. During the combined study period, 43 (67.2%) of the 64 subjects reported a treatment-emergent bleeding event (Table 23). Gingival bleeding was the most frequently reported bleeding event, occurring in 7 subjects (10.9%). All were grade 1 (n=6) or grade 2 (n=1) and none were considered to be related to study drug.
Using Kaplan-Meier methods, the estimated median time to the first bleeding event was 8 weeks (95% CI: 4.7-15.3 weeks) after initiation of E5501 (FIG. 5).

[1] = Lower ⅓ dose (2.5-<8.85 mg), N=22
[2] = Middle ⅓ dose (≧8.85-<13.5 mg), N=22
[3] = Upper ⅓ dose (≧13.5-≦25.7 mg), N=20

In the case of `O=C(Nc1nc(-c2cc(Cl)cs2)c(N2CCN(C3CCCCC3)CC2)s1)c1cnc(N2CCC(C(=O)O)CC2)c(Cl)c1` [E5501, 1-(3-chloro-5-{[4-(4-chlorothiophen-2-yl)-5-(4-cyclohexylpiperazin-1-yl)thiazol-2-yl]carbamoyl}pyridine-2-yl)piperidine-4-carboxylic acid], the “Any TE bleeding event, % of subjects” value (E5501 Total, N=64) is reported as “(67.2) %”, the “Any TE bleeding event, n of subjects” value (E5501 Total, N=64) is reported as 43 and the “TE bleeding event, highest toxicity Grade 1, % of subjects” value (E5501 Total, N=64) is reported as “(45.3) %”. For the same molecule, the “TE bleeding event, highest toxicity Grade 1, n of subjects” value (E5501 Total, N=64) was 29, the “TE bleeding event, highest toxicity Grade 2, % of subjects” value (E5501 Total, N=64) was “(17.2) %” and the “TE bleeding event, highest toxicity Grade 2, n of subjects” value (E5501 Total, N=64) was 11. The “TE bleeding event, highest toxicity Grade 3, % of subjects” value (E5501 Total, N=64) was “(4.7) %”, the “TE bleeding event, highest toxicity Grade 3, n of subjects” value (E5501 Total, N=64) was 3 and the “TE bleeding event, highest toxicity Grade 4, % of subjects” value (E5501 Total, N=64) was “(1.6) %”. The “TE bleeding event, highest toxicity Grade 4, n of subjects” value (E5501 Total, N=64) was 1, the “TE bleeding event, highest toxicity Grade 5, n of subjects” value (E5501 Total, N=64) was 0 and the “estimated median time to the first bleeding event” value (Kaplan-Meier, after initiation of E5501, 95% CI: 4.7-15.3 weeks) was 8 weeks. For the same molecule, the “Any TE bleeding event, % of subjects” value [1] was “(68.2) %”, the “Any TE bleeding event, n of subjects” value [1] was 15 and the “TE bleeding event, highest toxicity Grade 1, % of subjects” value [1] was “(50.0) %”. For the same molecule, the “TE bleeding event, highest toxicity Grade 1, n of subjects” value [1] was 11, the “TE bleeding event, highest toxicity Grade 2, % of subjects” value [1] was “(9.1) %” and the “TE bleeding event, highest toxicity Grade 2, n of subjects” value [1] was 2. The “TE bleeding event, highest toxicity Grade 3, % of subjects” value [1] was “(4.5) %”, the “TE bleeding event, highest toxicity Grade 3, n of subjects” value [1] was 1 and the “TE bleeding event, highest toxicity Grade 4, % of subjects” value [1] was “(4.5) %”. The “TE bleeding event, highest toxicity Grade 4, n of subjects” value [1] was 1, the “TE bleeding event, highest toxicity Grade 5, n of subjects” value [1] was 0 and the “Any TE bleeding event, % of subjects” value [2] was “(63.6) %”. The “Any TE bleeding event, n of subjects” value [2] was 14, the “TE bleeding event, highest toxicity Grade 1, % of subjects” value [2] was “(40.9) %” and the “TE bleeding event, highest toxicity Grade 1, n of subjects” value [2] was 9. For the same molecule, the “TE bleeding event, highest toxicity Grade 2, % of subjects” value [2] was “(13.6) %”, the “TE bleeding event, highest toxicity Grade 2, n of subjects” value [2] was 3 and the “TE bleeding event, highest toxicity Grade 3, % of subjects” value [2] was “(9.1) %”. For the same molecule, the “TE bleeding event, highest toxicity Grade 3, n of subjects” value [2] was 2, the “TE bleeding event, highest toxicity Grade 4, n of subjects” value [2] was 0 and the “TE bleeding event, highest toxicity Grade 5, n of subjects” value [2] was 0. The “Any TE bleeding event, % of subjects” value [3] was 70.0%, the “Any TE bleeding event, n of subjects” value [3] was 14 and the “TE bleeding event, highest toxicity Grade 1, % of subjects” value [3] was 40.0%. For the same molecule, the “TE bleeding event, highest toxicity Grade 1, n of subjects” value [3] was 8, the “TE bleeding event, highest toxicity Grade 2, % of subjects” value [3] was 30.0% and the “TE bleeding event, highest toxicity Grade 2, n of subjects” value [3] was 6. For the same molecule, the “TE bleeding event, highest toxicity Grade 3, n of subjects” value [3] was 0, the “TE bleeding event, highest toxicity Grade 4, n of subjects” value [3] was 0 and the “TE bleeding event, highest toxicity Grade 5, n of subjects” value [3] was 0. For the same molecule, the “subjects with a clinically significant, grade 3 or 4 bleeding event” value (combined study period) was “Four” and the “subjects reporting a treatment-emergent bleeding event” value (combined study period, 64 subjects) was 67.2%.
